The record followed here is the supplement of paper PMC11208160.
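Further: IS621 bridge recombinase in Escherichia coli cells against a fixed T5 target plasmid.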

The data set is described as follows: recombinant UMI read abundance after kanamycin selection (control-corrected) (log10(CPM+1)); higher = more efficient recombination; extreme values may be limits of the assay; sequences stand for … in AGTGCAGAGAAAATCGGCCAGTTTTCTCTGCCTGCAGTCCGCATGCCGTGGGACCCCTTGGGTTCTAACCTGTTGCCTAGATTTATGCAGCGGACTGCCTTTCTCCCAAAGTGATAAACCGG…AGGTTGGTTTCACT; site = the 11-nt donor. A digest of the protocol:
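Values, expressed as log10(CPM+1), derive from recombinant UMI counts converted to CPM, averaged across replicates and scaled by control-derived factors. Plating was with IPTG (0.07 mM) plus kanamycin or unselected, two replicates each. The screen pooled donor and donor-binding-loop pairs for the IS621 bridge recombinase in Escherichia coli.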
In the case of “CGGACATCATGGACCGGTTTTCCCGGTAATCCGTATTTGCT (site CGGACAACTAG)”, the “recombinant UMI read abundance (log10)” value was found to be 0.552.

On to “CGGACATCATGGACCGGTTTTCCCGGTAATCCGTATTTGCT (site CGGACACCTAG)”, for which the “recombinant UMI read abundance (log10)” value is 0.

Consider “CGGACATCATGGACCGGTTTTCCCGGTAATCCGTATTTGCT (site CGGACAGCTAG)”, for which the “recombinant UMI read abundance (log10)” value is 0.00346.

Turning to “CGGACATCATGGACCGGTTTTCCCGGTAATCCGTATTTGCT (site CGGACATCTAA)”, the “recombinant UMI read abundance (log10)” value amounted to 0.

With “CGGACATCATGGACCGGTTTTCCCGGTAATCCGTATTTGCT (site CGGACATCTAC)”, the “recombinant UMI read abundance (log10)” value was 0.

As for “CGGACATCATGGACCGGTTTTCCCGGTAATCCGTATTTGCT (site CGGACATCTAG)”, the “recombinant UMI read abundance (log10)” value was 2.42.

In the case of “CGGACATCATGGACCGGTTTTCCCGGTAATCCGTATTTGCT (site CGGACATCTAT)”, the “recombinant UMI read abundance (log10)” value was 1.21.

For “CGGACATCATGGACCGGTTTTCCCGGTAATCCGTATTTGCT (site CGGACATCTCG)”, the “recombinant UMI read abundance (log10)” value was 0.0134.

Regarding “CGGACATCATGGACCGGTTTTCCCGGTAATCCGTATTTGCT (site CGGACATCTGG)”, the “recombinant UMI read abundance (log10)” value turned out to be 0.0128.

Turning to “CGGACATCATGGACCGGTTTTCCCGGTAATCCGTATTTGCT (site CGGACATCTTG)”, the “recombinant UMI read abundance (log10)” value is 0.756.

For the sequence “CGGACATCATGGACCGGTTTTCCCGGTAATCCGTATTTGCT (site CGGACCTCTAG)”, the “recombinant UMI read abundance (log10)” value stood at 0.303.

On to “CGGACATCATGGACCGGTTTTCCCGGTAATCCGTATTTGCT (site CGGACGTCTAG)”, for which the “recombinant UMI read abundance (log10)” value is 0.

As to “CGGACATCATGGACCGGTTTTCCCGGTAATCCGTATTTGCT (site CGGACTTCTAG)”, the “recombinant UMI read abundance (log10)” value was found to be 0.255.

With “CGGACATCATGGACCGGTTTTCCCGGTAATCCGTATTTGCT (site CGGAGATCTAG)”, the “recombinant UMI read abundance (log10)” value was determined as 0.

Consider “CGGACATCATGGACCGGTTTTCCCGGTAATCCGTATTTGCT (site CGGATATCTAG)”, for which the “recombinant UMI read abundance (log10)” value turned out to be 1.9.

“CGGACATCATGGACCGGTTTTCCCGGTAATCCGTATTTGCT (site CGGCCATCTAG)”: the “recombinant UMI read abundance (log10)” value stood at 0.0134.

For “CGGACATCATGGACCGGTTTTCCCGGTAATCCGTATTTGCT (site CGGGCATCTAG)”, the “recombinant UMI read abundance (log10)” value came to 0.

Take “CGGACATCATGGACCGGTTTTCCCGGTAATCCGTATTTGCT (site CGGTCATCTAG)”: the “recombinant UMI read abundance (log10)” value was 0.746.

On to “CGGACATCATGGACCGGTTTTCCCGGTAATCCGTATTTGCT (site CGTACATCTAG)”, for which the “recombinant UMI read abundance (log10)” value was 1.54.

Consider “CGGACATCATGGACCGGTTTTCCCGGTAATCCGTATTTGCT (site CTGACATCTAG)”, for which the “recombinant UMI read abundance (log10)” value amounted to 1.34.

Take “CGGACATCATGGACCGGTTTTCCCGGTAATCCGTATTTGCT (site GGGACATCTAG)”: the “recombinant UMI read abundance (log10)” value was 0.

Regarding “CGGACATCATGGACCGGTTTTCCCGGTAATCCGTATTTGCT (site TGGACATCTAG)”, the “recombinant UMI read abundance (log10)” value is 0.773.

“CGGACGACATGGACCGGTTTTCCCGGTAATCCGTATTTGGT (site CGGACGACTAC)”: the “recombinant UMI read abundance (log10)” value was 1.25.

For the sequence “CGGACTGCATGGACCGGTTTTCCCGGTAATCCGTATTTGTT (site CGGAATCCTAA)”, the “recombinant UMI read abundance (log10)” value was found to be 0.

For the sequence “CGGACTGCATGGACCGGTTTTCCCGGTAATCCGTATTTGTT (site CGGACTGCTAA)”, the “recombinant UMI read abundance (log10)” value is 2.12.

As for “CGGACTTCATGGACCGGTTTTCCCGGTAATCCGTATTTGCT (site CGGACATCTAG)”, the “recombinant UMI read abundance (log10)” value was 0.905.

For the sequence “CGGACTTCATGGACCGGTTTTCCCGGTAATCCGTATTTGCT (site CGGACCTCTAG)”, the “recombinant UMI read abundance (log10)” value was 1.61.

With “CGGACTTCATGGACCGGTTTTCCCGGTAATCCGTATTTGCT (site CGGACGTCTAG)”, the “recombinant UMI read abundance (log10)” value came to 0.

Regarding “CGGACTTCATGGACCGGTTTTCCCGGTAATCCGTATTTGCT (site CGGACTTCTAG)”, the “recombinant UMI read abundance (log10)” value was found to be 2.17.

Regarding “CGGAGTACATGGACCGGTTTTCCCGGTAATCCGTATTTGTT (site CGGAATCCTAA)”, the “recombinant UMI read abundance (log10)” value was 0.

With “CGGAGTACATGGACCGGTTTTCCCGGTAATCCGTATTTGTT (site CGGAGTACTAA)”, the “recombinant UMI read abundance (log10)” value was 2.14.

“CGGAGTCCATGGACCGGTTTTCCCGGTAATCCGTATTTGAT (site CGGAATCCTAA)”: the “recombinant UMI read abundance (log10)” value turned out to be 0.0131.

On to “CGGAGTCCATGGACCGGTTTTCCCGGTAATCCGTATTTGAT (site CGGAGTCCTAT)”, for which the “recombinant UMI read abundance (log10)” value was 1.98.

Regarding “CGGATATCATGGACCGGTTTTCCCGGTAATCCGTATTTGCT (site CGGAAATCTAG)”, the “recombinant UMI read abundance (log10)” value stood at 0.

Consider “CGGATATCATGGACCGGTTTTCCCGGTAATCCGTATTTGCT (site CGGACATCTAG)”, for which the “recombinant UMI read abundance (log10)” value is 0.

With “CGGATATCATGGACCGGTTTTCCCGGTAATCCGTATTTGCT (site CGGAGATCTAG)”, the “recombinant UMI read abundance (log10)” value amounted to 0.

Consider “CGGATATCATGGACCGGTTTTCCCGGTAATCCGTATTTGCT (site CGGATATCTAG)”, for which the “recombinant UMI read abundance (log10)” value is 1.51.

As for “CGGATGTCATGGACCGGTTTTCCCGGTAATCCGTATTTGTG (site CGGATGTCTCA)”, the “recombinant UMI read abundance (log10)” value is 2.74.

On to “CGGATTCCATGGACCGGTTTTCCCGGTAATCCGTATTTGTT (site CGGAATCCTAA)”, for which the “recombinant UMI read abundance (log10)” value was 0.00458.

Take “CGGATTCCATGGACCGGTTTTCCCGGTAATCCGTATTTGTT (site CGGACTCCTAA)”: the “recombinant UMI read abundance (log10)” value came out at 0.0161.

For the sequence “CGGATTCCATGGACCGGTTTTCCCGGTAATCCGTATTTGTT (site CGGAGTCCTAA)”, the “recombinant UMI read abundance (log10)” value was 0.0137.

In the case of “CGGATTCCATGGACCGGTTTTCCCGGTAATCCGTATTTGTT (site CGGATTCCTAA)”, the “recombinant UMI read abundance (log10)” value is 0.599.

As to “CGGCAGGCATGGACCGGTTTTCCCGGTAATCCGTATTTGAT (site CGGCAGGCTAT)”, the “recombinant UMI read abundance (log10)” value is 2.21.

With “CGGCATCCATGGACCGGTTTTCCCGGTAATCCGTATTTGGT (site CGGAATCCTAA)”, the “recombinant UMI read abundance (log10)” value amounted to 0.

As for “CGGCATCCATGGACCGGTTTTCCCGGTAATCCGTATTTGGT (site CGGCATCCTAC)”, the “recombinant UMI read abundance (log10)” value is 0.00636.

For “CGGCATCCATGGACCGGTTTTCCCGGTAATCCGTATTTGTT (site CGGAATCCTAA)”, the “recombinant UMI read abundance (log10)” value stood at 0.

With “CGGCATCCATGGACCGGTTTTCCCGGTAATCCGTATTTGTT (site CGGCATCCTAA)”, the “recombinant UMI read abundance (log10)” value worked out at 0.467.

Turning to “CGGCATCCATGGACCGGTTTTCCCGGTAATCCGTATTTGTT (site CGGGATCCTAA)”, the “recombinant UMI read abundance (log10)” value is 0.0034.

“CGGCATCCATGGACCGGTTTTCCCGGTAATCCGTATTTGTT (site CGGTATCCTAA)”: the “recombinant UMI read abundance (log10)” value is 0.0136.

On to “CGGCCAACATGGACCGGTTTTCCCGGTAATCCGTATTTGTC (site CGGCCAACTGA)”, for which the “recombinant UMI read abundance (log10)” value came out at 1.56.

Regarding “CGGCGCTCATGGACCGGTTTTCCCGGTAATCCGTATTTGAT (site CGGCGCTCTAT)”, the “recombinant UMI read abundance (log10)” value was found to be 2.65.

On to “CGGCGTACATGGACCGGTTTTCCCGGTAATCCGTATTTGCT (site CGACGTACTAG)”, for which the “recombinant UMI read abundance (log10)” value stood at 1.63.

For the sequence “CGGCGTACATGGACCGGTTTTCCCGGTAATCCGTATTTGCT (site CGCCGTACTAG)”, the “recombinant UMI read abundance (log10)” value is 0.201.

On to “CGGCGTACATGGACCGGTTTTCCCGGTAATCCGTATTTGCT (site CGGCGTACTAG)”, for which the “recombinant UMI read abundance (log10)” value came to 2.38.

In the case of “CGGCGTACATGGACCGGTTTTCCCGGTAATCCGTATTTGCT (site CGTCGTACTAG)”, the “recombinant UMI read abundance (log10)” value worked out at 0.

For the sequence “CGGCGTACATGGACCGGTTTTCCCGGTAATCCGTATTTGTC (site CGGCGTACTGA)”, the “recombinant UMI read abundance (log10)” value amounted to 2.31.

Turning to “CGGCGTGCATGGACCGGTTTTCCCGGTAATCCGTATTTGAC (site CGGCGTGCTGT)”, the “recombinant UMI read abundance (log10)” value was 2.82.

In the case of “CGGCTTCCATGGACCGGTTTTCCCGGTAATCCGTATTTGGA (site CGGCTTCCTTC)”, the “recombinant UMI read abundance (log10)” value came out at 0.00516.

On to “CGGCTTGCATGGACCGGTTTTCCCGGTAATCCGTATTTGCC (site CGGCTTGCTGG)”, for which the “recombinant UMI read abundance (log10)” value was found to be 0.904.

“CGGGAAACATGGACCGGTTTTCCCGGTAATCCGTATTTGCA (site CAGGAAACTTG)”: the “recombinant UMI read abundance (log10)” value came out at 2.

With “CGGGAAACATGGACCGGTTTTCCCGGTAATCCGTATTTGCA (site CCGGAAACTTG)”, the “recombinant UMI read abundance (log10)” value was found to be 1.45.

As for “CGGGAAACATGGACCGGTTTTCCCGGTAATCCGTATTTGCA (site CGGGAAACTTG)”, the “recombinant UMI read abundance (log10)” value turned out to be 0.914.

With “CGGGAAACATGGACCGGTTTTCCCGGTAATCCGTATTTGCA (site CTGGAAACTTG)”, the “recombinant UMI read abundance (log10)” value was determined as 1.04.

“CGGGAACCATGGACCGGTTTTCCCGGTAATCCGTATTTGCT (site CGGGAACCTAA)”: the “recombinant UMI read abundance (log10)” value is 0.

Turning to “CGGGAACCATGGACCGGTTTTCCCGGTAATCCGTATTTGCT (site CGGGAACCTAC)”, the “recombinant UMI read abundance (log10)” value amounted to 0.

For “CGGGAACCATGGACCGGTTTTCCCGGTAATCCGTATTTGCT (site CGGGAACCTAG)”, the “recombinant UMI read abundance (log10)” value was 0.

Regarding “CGGGAACCATGGACCGGTTTTCCCGGTAATCCGTATTTGCT (site CGGGAACCTAT)”, the “recombinant UMI read abundance (log10)” value is 0.

With “CGGGAGCCATGGACCGGTTTTCCCGGTAATCCGTATTTGAT (site CGGGAACCTAT)”, the “recombinant UMI read abundance (log10)” value amounted to 0.
